Measurements as given in PMC2695949, “Synthesis and Evaluation of Novel Organogermanium Sesquioxides As Antitumor Agents” (Bioinorganic Chemistry and Applications, 2009).

What was measured:
[1] = test system: Bel (human liver cancer) cells; assay: MTT antitumor activity in vitro, Bel cells; assay type: cell-based; settings: 50 μg/mL, DMSO as solvent
Experimental: (§1) The antitumor activity in vitro was assayed by the MTT method using DMSO as solvent.

[2] = test system: KB (human nasopharyngeal cancer) cells; assay: MTT antitumor activity in vitro, KB cells; assay type: cell-based; settings: 50 μg/mL, DMSO as solvent
Experimental: (§2) The antitumor activity in vitro was assayed by the MTT method using DMSO as solvent. The tumor inhibition yield and IC50 of the five organogermanium sesquioxides and Ge-132 against KB (human nasopharyngeal cancer), HCT (human colonic cancer), and Bel (human liver cancer) cells were measured.

[3] = test system: HCT (human colonic cancer) cells; assay: MTT antitumor activity in vitro, HCT cells; assay type: cell-based; settings: 50 μg/mL, DMSO as solvent
Experimental: as §2

KB, HCT, and Bel cells = assay: MTT antitumor activity in vitro, cell line not singled out; assay type: cell-based, human; settings: bioassay at 1, 10, and 50 μg/mL
Experimental: as §1

[4] = Solubility of the powders; assay type: physicochemical; settings: 2 mol/L of NaOH solution
[5] = Biodistribution in nude mice bearing human colonic cancer xenografts; assay type: in vivo, Balb/c nude mice; settings: for Biodistribution, uptake: Tumor; for Biodistribution, uptake / T/NT (ratio of ID %/g of tumor over normal tissue): n = 3; for T/NT (ratio of ID %/g of tumor over normal tissue): 20 h
Experimental: Experimental animals (Balb/c nude mice) were provided by Experimental Animal Department of Chinese Academy of Medical Sciences. The nude mice were implanted with human colonic carcinoma cells (LoVo cells). When the tumor size was about 1 cm, the mice were used for the experiment.
Twelve nude mice bearing human colonic cancer xenografts were injected in tail vein with 555~740 kBq of ^99mTc labeled compound 5. Three animals were sacrified at 1-hour, 3-hour, 6-hour, and 20-hour postinjection, respectively. Tissues and organs were excised, rinsed, weighted, and counted in a γ counter. The uptake percentage of the injected dose per gram of the measured organ (ID %/g) and the ratio of ID %/g of tumor over normal tissues (T/NT) were calculated.

| Biodistribution, uptake ([5]; 1 h postinjection) | Biodistribution, uptake ([5]; 3 h postinjection) | Biodistribution, uptake ([5]; 6 h postinjection) | Biodistribution, uptake ([5]; 20 h postinjection) | clearance in tumor ([5]; nude mice, tail vein injection) | T/NT (ratio of ID %/g of tumor over normal tissue) ([5]; tumor versus Blood) | T/NT (ratio of ID %/g of tumor over normal tissue) ([5]; tumor versus Brain) | T/NT (ratio of ID %/g of tumor over normal tissue) ([5]; tumor versus Muscle) | Structure (SMILES) | Inhibition yield [1] | Inhibition yield [2] | Inhibition yield [3] | antitumor activity against cancer cells (in words) (KB, HCT, and Bel cells) | solubility [4] |
| --- | --- | --- | --- | --- | --- | --- | --- | --- | --- | --- | --- | --- | --- |
|  |  |  |  |  |  |  |  | O=C1NC(=O)C2C3OC(C[CH]3[Ge](=[O])[O][Ge](=[O])[CH]3CC4OC3C3C(=O)NC(=O)C43)C12 (centres unmarked) [Compound 2] | 0% | 0% | 0% | no antitumor activity |  |
|  |  |  |  |  |  |  |  | CCOC(=O)CCC(NC(=O)C[CH2][Ge](=[O])[O][Ge](=[O])[CH2]CC(=O)NC(CCC(=O)OCC)C(=O)OCC)C(=O)OCC (centres unmarked) [Compound 4, Germanium Sesquioxide of Ethyl Glutamate] |  | 0% | 41.5% | certain activities |  |
|  |  |  |  |  |  |  |  | NN1C(=O)C2C3C[CH]([Ge](=[O])[O][Ge](=[O])[CH]4CC5OC4C4C(=O)N(N)C(=O)C54)C(O3)C2C1=O (centres unmarked) [Compound 3] | 0% | 0% | 0% | no antitumor activity | easily soluble |
| 0.73 % ID/g | 0.97 % ID/g | 0.87 % ID/g | 0.62 % ID/g | relatively low | 3.01 | 18.30 | 5.81 | NC(=S)NCC[CH2][Ge](=[O])[O][Ge](=[O])[CH2]CCNC(N)=S [Compound 5, γ-thiocarbamido propyl germanium sesquioxide] | 70.9% | 92.9% | 84.9% | certain activities | easily soluble |
|  |  |  |  |  |  |  |  | O=C(O)C[CH2][Ge](=[O])[O][Ge](=[O])[CH2]CC(=O)O [Ge-132, carboxyethylgermanium sesquioxide, reference compound] | 0% | 0% | 31.4% |  |  |
|  |  |  |  |  |  |  |  | O=C1OC(=O)C2C3OC(C[CH]3[Ge](=[O])[O][Ge](=[O])[CH]3CC4OC3C3C(=O)OC(=O)C43)C12 (centres unmarked) [Compound 1] | 0% | 0% | 0% | no antitumor activity |  |
